# Test results from patent US20260158031A1, “AROMATIC HETEROCYCLIC COMPOUND, PHARMACEUTICAL COMPOSITION CONTAINING THE SAME, AND USE THEREOF” (HANG ZHOU YUHONG PHARMATECH CO., LTD., priority 2021, published 2026).
# pIC50: −log10 of the molar value.
# Tested on: SRBC mouse model
# Test: SRBC-induced delayed type hypersensitivity (DTH) in mice
# Format: in vivo
# Conditions: male Balb/c mice, 100 mg/kg by gavage once a day, day 0 to day 6, FIG. 1
# Method: PF-06651600 was used as a positive control compound.
# Drug preparation: the compound was weighed and added with a 0.5% CMC-Na solution to prepare a drug suspension (with an administration dose of 10 mg/mL).
# Induction of delayed type hypersensitivity (DTH) and administration: 30 male Balb/c mice were weighed and randomly divided into 6 groups according to body weight, with 5 mice in each group. The experimental period lasted for 7 days in total. On day 0, the mice were subcutaneously injected with sheep red blood cells (SRBCs) for sensitization. From day 0, the mice were administrated with 100 mg/kg by gavage (once a day) until day 6. On day 6, SRBCs were injected into the right hind foot pad of the mice for excitation. On day 7 of the experiment, measurements were conducted, photographs were taken, and the experiment was ended.
# Pharmacodynamic detection indicators of disease models: the detection and observation indicators were the degree of redness and swelling and detected thicknesses of paw pads of the mice in the model group as induced by SRBC. The thickness of the right paw was measured as the baseline before the SRBC injection excitation on day 6. At the end of the experiment […], the thickness of the right paw was measured again, and the difference in thickness of the paw before and after the second injection was calculated.
# Statistical processing: experimental data was expressed as mean±standard deviation (Mean±SD). All data was statistically analyzed using a T-test. P<0.05 was considered to be statistically different.
row,SMILES,immunosuppressive effect on SRBC-induced delayed type hypersensitivity (right paw thickness)
1,C=C(F)C(=O)N1CCc2c(c(-c3ccnc4[nH]ccc34)nn2C)C1 [YZ001054],significant immunosuppressive effects
2,C=CC(=O)N1Cc2c(-c3ccnc4[nH]ccc34)nn(C(C)C)c2C[C@H]1C [YZ001085],significant immunosuppressive effects

# Target: T1, JAK3 kinase (Homo sapiens, UniProt P52333)
# T1 sequence (P52333 1-1124): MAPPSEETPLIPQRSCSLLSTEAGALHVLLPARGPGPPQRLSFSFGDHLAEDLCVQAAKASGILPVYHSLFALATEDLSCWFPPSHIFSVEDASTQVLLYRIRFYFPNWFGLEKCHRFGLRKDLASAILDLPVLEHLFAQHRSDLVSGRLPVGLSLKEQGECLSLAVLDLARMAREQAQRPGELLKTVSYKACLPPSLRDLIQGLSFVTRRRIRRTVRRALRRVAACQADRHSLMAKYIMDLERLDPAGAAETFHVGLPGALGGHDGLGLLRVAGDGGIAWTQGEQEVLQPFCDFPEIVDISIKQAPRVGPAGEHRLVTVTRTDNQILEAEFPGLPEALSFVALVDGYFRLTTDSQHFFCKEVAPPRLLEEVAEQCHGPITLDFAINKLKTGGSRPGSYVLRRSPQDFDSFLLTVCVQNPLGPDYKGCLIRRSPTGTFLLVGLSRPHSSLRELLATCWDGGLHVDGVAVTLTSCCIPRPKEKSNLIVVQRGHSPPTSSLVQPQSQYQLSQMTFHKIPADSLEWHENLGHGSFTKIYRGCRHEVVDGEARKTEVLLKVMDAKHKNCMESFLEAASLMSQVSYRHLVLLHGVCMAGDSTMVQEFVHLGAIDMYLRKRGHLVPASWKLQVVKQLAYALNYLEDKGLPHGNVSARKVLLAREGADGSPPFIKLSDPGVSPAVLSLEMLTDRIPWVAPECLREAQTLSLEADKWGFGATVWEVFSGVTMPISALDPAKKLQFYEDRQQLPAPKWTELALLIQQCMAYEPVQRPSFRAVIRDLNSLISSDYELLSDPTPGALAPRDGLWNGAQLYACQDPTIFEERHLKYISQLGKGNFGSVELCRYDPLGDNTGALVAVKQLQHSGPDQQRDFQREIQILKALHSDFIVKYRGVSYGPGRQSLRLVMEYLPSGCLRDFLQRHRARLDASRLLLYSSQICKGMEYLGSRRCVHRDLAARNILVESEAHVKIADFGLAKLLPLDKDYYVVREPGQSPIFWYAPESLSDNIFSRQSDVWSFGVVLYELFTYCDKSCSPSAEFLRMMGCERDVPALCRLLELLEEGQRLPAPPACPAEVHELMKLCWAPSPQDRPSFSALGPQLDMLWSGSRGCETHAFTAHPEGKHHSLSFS
# Test: Mobility shift assay, in vitro JAK3 kinase inhibitory activity
# Format: biochemical
# Conditions: mobility shift assay, Example 136
# Method: A Mobility shift assay was adopted to detect compounds to be tested (see list below) for in vitro inhibitory activity on the enzyme activity of JAK3 kinase.
# The compound was dissolved in 100% DMSO to formulate a 10 mM stock solution, which was stored in a −20° C. refrigerator with protection from light.
# The compounds were diluted with gradients into solutions with a final concentration of 100 times in a 384-well plate. Then 250 nL was transferred to a 384 reaction plate with Echo550 for later use. 250 nL of 100% DMSO was added into the negative control well and the positive control well respectively. • (3) A kinase solution with a final concentration of 2.5 times was formulated with the 1× Kinase buffer. • (4) The compound wells and the positive control wells were added with 10 μL of the kinase solution with the final concentration of 2.5 times respectively; the negative control wells were added with 10 μL of the 1× Kinase buffer. • (5) The wells were centrifuged at 1,000 rpm for 30 seconds, mixed well by shaking, and then incubated at room temperature for 10 minutes. • (6) A mixed solution of ATP and Kinase substrate 22 with a final concentration of 25/15 times was formulated with a 1× Kinase buffer. • (7) The compound wells, positive control wells and negative control wells of the 384 reaction plate were respectively added with 15 μL of a mixed solution of ATP and the substrate at the final concentration of 25/15 times to start the reaction. • (8) The 384-well plate was centrifuged at 1,000 rpm for 30 seconds, mixed well by shaking, and then incubated at room temperature for 30 minutes. • (9) 30 μL of a detection termination solution was added to stop the kinase reaction, centrifuged at 1,000 rpm for 30 seconds, and mixed well by shaking. • (10) The conversion rate was read with Caliper EZ Reader.
# % Inhibition=(Conversion %_max−Conversion %_sample)/(Conversion %_max−Conversion %_min)×100 (1) Calculation Equation
# Among them: Conversion %_sample was the conversion rate reading of the sample; Conversion %_min was the mean value of the negative control wells, representing the conversion rate reading of the wells without enzyme activity; Conversion % max was the mean value of the positive control wells, representing the conversion rate reading of the wells without compound inhibition; and % Inhibition represented the percentage inhibition rate.
# • by taking the log value of concentration as the X axis and taking the percent inhibition rate as the Y axis, a dose-response curve is fitted by adopting the log (inhibitor) vs. response-Variable slope of the analysis software GraphPad Prism 5, so as to obtain the IC50 value of each compound on the enzyme activity. The calculation equation was Y=Bottom+ (Top−Bottom)/(1+10^((Log IC50−X)*HillSlope)).
row,SMILES,pIC50
1,C=CC(=O)N1Cc2c(-c3ccnc4[nH]ccc34)cnn2[C@@H]2CCC[C@@H]21 [YZ001045],9.72
2,C[C@H]1CN(C(=O)/C=C/CN(C)C)Cc2c(-c3ncnc4[nH]ccc34)cnn21 [YZ001027],8.11
3,C[C@H]1Cn2ncc(-c3ccnc4[nH]ccc34)c2CN1C(=O)/C=C/CN1CCCCC1 [YZ001023],9.24
4,C=CC(=O)N1Cc2c(-c3ncnc4[nH]ccc34)cnn2C[C@@H]1C(C)C [YZ001033],9.92
5,C=CC(=O)N1Cc2c(-c3ncnc4[nH]ccc34)cnn2C[C@H]1C [YZ001018],9.32
6,[2H]C([2H])([2H])n1nc(-c2ccnc3[nH]ccc23)c2c1CCN(C(=O)C=C)C2 [YZ001103],9.54
7,C=CC(=O)N1CCCCn2ncc(-c3ccnc4[nH]ccc34)c2C1 [YZ001095],8.15
8,C[C@@H]1Cn2ncc(-c3ccnc4[nH]ccc34)c2CN1C(=O)CCl [YZ001013],8.09
9,C=C(F)C(=O)N1Cc2[nH]nc(-c3ccnc4[nH]ccc34)c2C1 [YZ001077],8.15
10,C=CC(=O)N1Cc2[nH]nc(-c3ccnc4[nH]ccc34)c2C1 [YZ001076],9.55
11,C=CC(=O)N1CCc2c(c(-c3ccnc4[nH]ccc34)nn2C(C)C)C1 [YZ001117],8.16
12,C=CC(=O)N1Cc2c(-c3ccnc4[nH]ccc34)n[nH]c2[C@@H]1C [YZ001091],8.29
13,C=CC(=O)N1Cc2c(-c3ccnc4[nH]ccc34)cnn2[C@H]2CCC[C@H]21 [YZ001057],9.51
14,C=C(F)C(=O)N1Cc2c(-c3ccnc4[nH]ccc34)cnn2[C@H](C)C1 [YZ001100],8.42
15,C=CC(=O)N1CCCn2ncc(-c3ccnc4[nH]ccc34)c2C1 [YZ001093],8.85
16,C=CC(=O)N1Cc2c(-c3ccnc4[nH]ccc34)nn(C)c2C[C@H]1C [YZ001083],8.82

row,SMILES,pIC50
1,C=CC(=O)N1Cc2c(-c3ncnc4[nH]ccc34)cnn2C[C@@H]1C [YZ001024],9.82
2,C=C(F)C(=O)N1CCc2c(c(-c3ccnc4[nH]ccc34)nn2C(C)=O)C1 [YZ001109],8.28
3,C=CC(=O)N1Cc2c(-c3ccnc4[nH]ccc34)cnn2C[C@H]1CCS(C)(=O)=O [YZ001074],9.24
4,C=CC(=O)N1Cc2c(-c3ccnc4[nH]ccc34)cnn2[C@H](C)C1 [YZ001099],9.70
5,C=CC(=O)N1Cc2c(-c3ncnc4[nH]ccc34)cnn2[C@H](C)C1 [YZ001028],9.72
6,C=CC(=O)N1CCc2c(c(-c3ccnc4[nH]ccc34)nn2C(C)=O)C1 [YZ001108],9.46
7,C=CC(=O)N1Cc2c(-c3ncnc4[nH]ccc34)cnn2[C@@H](C)C1 [YZ001026],9.37
8,C[C@@H]1Cn2ncc(-c3ccnc4[nH]ccc34)c2CN1S(C)(=O)=O [YZ001011],< 5.00
9,C=C(F)C(=O)N1Cc2c(-c3ccnc4[nH]ccc34)cnn2[C@@H]2CCCC[C@@H]21 [YZ001056],8.38
10,C=CC(=O)N1Cc2c(-c3ccnc4[nH]ccc34)cnn2[C@@H]2CCCC[C@@H]21 [YZ001055],9.96
11,C=CC(=O)N1Cc2c(-c3ncnc4[nH]ccc34)cnn2C[C@H]1C(C)C [YZ001030],8.62
12,C=CC(=O)N1Cc2c(-c3ccnc4[nH]ccc34)nn(C(C)C)c2C[C@H]1C [YZ001085],9.28
13,CN(C)C/C=C/C(=O)N1Cc2c(-c3ccnc4[nH]ccc34)cnn2[C@@H]2CCC[C@@H]21 [YZ001047],8.35
14,C=CC(=O)N1Cc2c(-c3ccnc4[nH]cc(C(C)=O)c34)cnn2C[C@@H]1C [YZ001063],8.85
15,C[C@H]1Cn2ncc(-c3ccnc4[nH]ccc34)c2CN1C(=O)/C=C/CN(C)C [YZ001022],9.06
16,C=CC(=O)N1CCn2ncc(-c3ccnc4[nH]ccc34)c2C1 [YZ001002],9.85

# Tested on: not listed separately
# Test: In vivo exposure detection in SD rats (plasma, LC-MS/MS)
# Conditions: IG 20 mg/kg, average value
# Method: Preparation and processing of standard curves and quality control samples: the compound stock solution was taken and diluted with 50% methanol and water into standard working solutions containing respective compounds at concentrations of 20, 40, 100, 200, 400, 1,000, 2,000, 4,000, and 10,000 ng/mL respectively and quality control working solutions at concentrations of 60, 600 and 8,000 ng/mL respectively. Each 47.5 μL of blank rat plasma was taken and added with 2.50 μL of a standard curve working solution and a quality control working solution respectively to prepare standard curve samples containing respective compounds at concentrations of 1.00, 2.00, 5.00, 10.00, 20.00, 50.00, 100.00, 200.00 and 500.00 ng/mL and quality control samples with concentrations of 3.00, 30.00 and 400.00 ng/mL. The samples were respectively added with 200 μL of acetonitrile (containing 2 ng/mL of verapamil as an internal standard), vortexed with shaking for 3 min, and then centrifuged at 20,000 rcf and 4° C. for 10 min, and the supernatant was taken for LC-MS/MS analysis.
# Preparation and processing of plasma sample to be tested: 50 μL of the plasma sample was taken, added with 200 μL of acetonitrile (containing 2 ng/ml of verapamil as an internal standard), vortexed with shaking for 3 min, and then centrifuged at 20,000 rcf and 4° C. for 10 min, and […] for LC-MS/MS analysis.
SMILES,AUClast_D,Cl_F_obs,HL_Lambda_z,Vz_F_obs
C=C(F)C(=O)N1CCc2c(c(-c3ccnc4[nH]ccc34)nn2C)C1 [YZ001054],93.88 kg·ng·h/mL/mg,235.1403 mL/min/kg,1.4162 h,34.35946 L/kg

# Same assay, conditions: Sprague-Dawley (SD), rat, po, IG 20 mg/kg, average value
SMILES,AUC(0-t),Cmax,Tmax
C=C(F)C(=O)N1CCc2c(c(-c3ccnc4[nH]ccc34)nn2C)C1 [YZ001054],1880 ng·h/mL,1360 ng/mL,4.5 h

# Same assay, conditions: Sprague-Dawley (SD), rat, po, IG 20 mg/kg, average value, read-out: AUCINF_obs
row,SMILES,AUC(0-inf)
1,C=C(F)C(=O)N1CCc2c(c(-c3ccnc4[nH]ccc34)nn2C)C1 [YZ001054],1900 ng·h/mL

# Same assay, conditions: Sprague-Dawley (SD), rat, po, IG 20 mg/kg, average value, read-out: MRTINF_obs
row,SMILES,MRT inf
1,C=C(F)C(=O)N1CCc2c(c(-c3ccnc4[nH]ccc34)nn2C)C1 [YZ001054],1.95 h
